The source of these data is publication PMC8298602, “14-3-3-protein regulates Nedd4-2 by modulating interactions between HECT and WW domains” (Communications Biology, 2021).

Non-standard residues stand in square brackets, D forms with d. Residues, ends and D or L forms follow the SMILES beside them. *: point of attachment. FITC = O=C1OC2(c3ccc(O)cc3Oc3cc(O)ccc32)c2ccc(NC(=S)*)cc21; pT = C[C@@H](OP(=O)(O)O)[C@H](N)C(=O)O; pS = N[C@@H](COP(=O)(O)O)C(=O)O

Common to all, as to assay type: binding
Conditions in all cases: 14-3-3 titrated 80 to 0.003418, three replicates

One assay addresses T1, 14-3-3ε (Homo sapiens, UniProt P62258).
T1 sequence (P62258 1-255): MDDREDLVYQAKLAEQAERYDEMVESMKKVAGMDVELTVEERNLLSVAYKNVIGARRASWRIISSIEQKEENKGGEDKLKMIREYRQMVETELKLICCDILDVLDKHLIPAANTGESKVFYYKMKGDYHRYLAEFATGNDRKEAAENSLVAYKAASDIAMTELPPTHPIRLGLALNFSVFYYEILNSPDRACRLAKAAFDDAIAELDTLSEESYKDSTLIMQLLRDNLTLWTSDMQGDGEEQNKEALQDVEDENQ
Nature of the assay: fluorescence polarization (FP) with FITC-labeled phosphopeptides, 14-3-3ε. Here is the method:
(§1) Fig. 4 14-3-3 isoform binding specificity of Nedd4-2 phosphomotifs. Binding of FITC-labeled phosphopeptides with 14-3-3 binding motifs of Nedd4-2 (pSer^342, pThr^367 or pSer^448) to all human 14-3-3 isoforms was characterized by FP titrations. The binding affinities of these peptides were determined by fitting FP data to a one-site binding model. The corresponding sequences of these peptides are shown at the top. Background polarization was subtracted from all values. Results are expressed as mean ± SD (n = 3). Error bars are not visible if they are smaller than the size of the symbol.
(§2) The FP assay was performed using a CLARIOstar microplate reader (BMG Labtech, […]) on 384-well black low-volume flat-bottom plates (Corning, New York, USA) in a buffer containing 10 mM HEPES (pH 7.4), 150 mM NaCl, 0.1% (v/v) Tween 20 and 0.1% (w/v) BSA. […] The excitation and emission wavelengths were 482 nm and 530 nm, respectively. The KD values were determined as the mean of three independent measurements using GraphPad Prism version 8.0.1 for Windows, GraphPad Software, La Jolla California USA, www.graphpad.com.
(§3) Results from the FP assay (Fig. 4) and immunoblot (Supplementary Fig. S1) are represented as means ± SD from three replicates as indicated in the figure legend. Statistical analysis for the data from immunoblot were performed using Graph-Pad Prism 8.4. Student’s t-test was used for comparison of relative changes of samples with and without 14-3-3η at selected timepoints (ns, non-significant P > 0.05; *, P < 0.05).
(In general: Polarisation of emitted light reports the rotation of a fluorescent probe.)

A further assay has as its target T2, 14-3-3γ (Homo sapiens, UniProt P61981).
T2 sequence (P61981 1-247): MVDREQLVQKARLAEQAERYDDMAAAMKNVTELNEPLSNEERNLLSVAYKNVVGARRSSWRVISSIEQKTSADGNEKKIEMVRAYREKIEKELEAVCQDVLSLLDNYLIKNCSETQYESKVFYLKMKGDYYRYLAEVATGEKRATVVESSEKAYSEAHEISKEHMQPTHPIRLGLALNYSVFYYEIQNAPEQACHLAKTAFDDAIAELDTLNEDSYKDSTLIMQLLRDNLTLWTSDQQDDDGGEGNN
The assay can be described thus: fluorescence polarization (FP) with FITC-labeled phosphopeptides, 14-3-3γ. Here is the method: as §1, §2, §3

A further assay has as its target T3, 14-3-3σ (Homo sapiens, UniProt P31947).
T3 sequence (P31947 1-248): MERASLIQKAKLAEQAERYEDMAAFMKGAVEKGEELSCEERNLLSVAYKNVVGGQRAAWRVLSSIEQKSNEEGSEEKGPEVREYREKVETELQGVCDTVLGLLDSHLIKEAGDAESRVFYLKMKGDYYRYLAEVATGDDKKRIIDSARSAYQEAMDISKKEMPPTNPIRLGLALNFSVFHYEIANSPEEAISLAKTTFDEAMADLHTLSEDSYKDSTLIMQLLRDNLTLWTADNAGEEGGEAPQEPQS
Nature of the assay: fluorescence polarization (FP) with FITC-labeled phosphopeptides, 14-3-3σ. How it is done:
as §1, §2, §3

For another assay, the target named is T4, 14-3-3ζ (Homo sapiens, UniProt P63104).
T4 sequence (P63104 1-245): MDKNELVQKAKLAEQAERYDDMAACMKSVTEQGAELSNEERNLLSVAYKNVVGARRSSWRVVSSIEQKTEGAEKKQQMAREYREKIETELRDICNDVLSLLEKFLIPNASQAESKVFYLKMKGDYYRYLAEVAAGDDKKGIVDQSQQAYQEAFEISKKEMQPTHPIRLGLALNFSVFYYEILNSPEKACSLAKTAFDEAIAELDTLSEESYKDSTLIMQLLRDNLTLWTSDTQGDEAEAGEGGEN
The assay can be described thus: fluorescence polarization (FP) with FITC-labeled phosphopeptides, 14-3-3ζ. Here is the method:
as §1, §2, §3

The next assay concerns the target T5, 14-3-3τ (Homo sapiens, UniProt P27348).
T5 sequence (P27348 1-245): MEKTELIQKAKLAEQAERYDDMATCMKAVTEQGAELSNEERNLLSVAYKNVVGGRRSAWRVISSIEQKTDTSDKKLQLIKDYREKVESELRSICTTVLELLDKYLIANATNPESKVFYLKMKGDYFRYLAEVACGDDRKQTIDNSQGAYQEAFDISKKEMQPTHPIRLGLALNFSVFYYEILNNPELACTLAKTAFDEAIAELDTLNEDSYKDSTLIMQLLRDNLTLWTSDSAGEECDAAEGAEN
The assay can be described thus: fluorescence polarization (FP) with FITC-labeled phosphopeptides, 14-3-3τ. How it is done:
as §1, §2, §3

The target in another assay is T6, 14-3-3β (Homo sapiens, UniProt P31946).
T6 sequence (P31946 1-246): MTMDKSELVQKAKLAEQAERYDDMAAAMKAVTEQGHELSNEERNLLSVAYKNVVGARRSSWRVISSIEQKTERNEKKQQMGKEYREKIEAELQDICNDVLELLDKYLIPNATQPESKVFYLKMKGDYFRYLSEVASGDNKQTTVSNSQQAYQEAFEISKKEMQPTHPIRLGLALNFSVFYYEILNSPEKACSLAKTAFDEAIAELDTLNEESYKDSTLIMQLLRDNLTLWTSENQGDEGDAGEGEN
The assay can be described thus: fluorescence polarization (FP) with FITC-labeled phosphopeptides, 14-3-3β. How it is done:
as §1, §2, §3

The target in the next assay is T7, 14-3-3η (Homo sapiens, UniProt Q04917).
T7 sequence (Q04917 1-246): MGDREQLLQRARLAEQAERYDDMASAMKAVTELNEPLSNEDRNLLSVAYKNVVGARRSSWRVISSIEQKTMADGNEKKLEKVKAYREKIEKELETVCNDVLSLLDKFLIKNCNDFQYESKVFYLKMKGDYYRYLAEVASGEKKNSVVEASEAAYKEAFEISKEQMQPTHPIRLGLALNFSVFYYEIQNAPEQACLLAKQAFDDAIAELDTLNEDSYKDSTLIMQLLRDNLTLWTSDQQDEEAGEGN
Nature of the assay: fluorescence polarization (FP) with FITC-labeled phosphopeptides, 14-3-3η. Here is the method:
as §1, §2, §3

Take `CC(C)[C@H](NC(=O)[C@@H](NC(=O)[C@H](CO)NC(=O)[C@H](CO)NC(=O)[C@H](CCCNC(=N)N)NC(=O)[C@H](C)NC(=S)Nc1ccc2c(c1)C(=O)OC21c2ccc(O)cc2Oc2cc(O)ccc21)[C@@H](C)OP(=O)(O)O)C(=O)N[C@H](C(=O)NCC(=O)NCC(=O)N[C@@H](CCC(=O)O)C(=O)O)[C@@H](C)O` [Nedd4-2 peptide pT367] ({FITC}-ARSS[pT]VTGGE-OH; C-terminus assumed): the “Bmax (One site -- Specific binding, best-fit value)” value (shortened to “Bmax”) on 14-3-3ε was determined as 0.3092; at 14-3-3γ, 0.9894; on 14-3-3σ, 0.1205; at 14-3-3ζ, 1.002; at 14-3-3τ, 0.7863; on 14-3-3β, 0.9561. The “Bmax” value at 14-3-3η was determined as 0.8265.

Consider `CC(C)C[C@H](NC(=O)[C@H](CO)NC(=O)[C@H](CCCNC(=N)N)NC(=O)[C@@H]1CCCN1C(=S)Nc1ccc2c(c1)C(=O)OC21c2ccc(O)cc2Oc2cc(O)ccc21)C(=O)N[C@@H](COP(=O)(O)O)C(=O)N[C@@H](CO)C(=O)N1CCC[C@H]1C(=O)N[C@H](C(=O)N[C@H](C(=O)N[C@H](C(=O)O)[C@@H](C)O)C(C)C)[C@@H](C)O` [Nedd4-2 peptide pS448] ({FITC}-PRSL[pS]SPTVT-OH; C-terminus assumed), for which the “Bmax” value on 14-3-3ε is reported as 0.7529; at 14-3-3γ, 0.9424; at 14-3-3σ it was 0.7456; at 14-3-3ζ, 0.9954; on 14-3-3τ, 0.8496; on 14-3-3β, 1. In addition, the “Bmax” value at 14-3-3η is 0.8968.

Regarding `CC(C)C[C@H](NC(=S)Nc1ccc2c(c1)C(=O)OC21c2ccc(O)cc2Oc2cc(O)ccc21)C(=O)N[C@@H](CCCNC(=N)N)C(=O)N[C@@H](CO)C(=O)N[C@@H](CS)C(=O)N[C@@H](COP(=O)(O)O)C(=O)N[C@H](C(=O)N[C@H](C(=O)N[C@@H](CC(=O)O)C(=O)N[C@@H](C)C(=O)N[C@H](C(=O)O)C(C)C)[C@@H](C)O)C(C)C` [Nedd4-2 peptide pS342] ({FITC}-LRSC[pS]VTDAV-OH; C-terminus assumed), the “Bmax” value came out at 0.261 on 14-3-3ε; 0.2226 on 14-3-3γ; 0.9999 at 14-3-3σ; 0.1453 at 14-3-3ζ; 0.1186 at 14-3-3τ; 0.1665 on 14-3-3β. In addition, the “Bmax” value at 14-3-3η came out at 0.164.
